Point of comparison: `O=[N+]([O-])c1cc(F)c(N2CCCCC2)cc1Cl`, melting point 70 °C. Against it:
- CS(=O)(=O)N(CCc1ccccn1)CC(O)(Cn1cncn1)c1ccc(Cl)cc1Cl (centres undefined) — higher, 151 to 153 °C
- O=C(O)CCc1oc(SCc2ccccn2)nc1-c1ccc(Cl)cc1 — higher, 125 to 126 °C
- O=C(Nc1ccccc1)OCC#Cc1cc(F)c2ncc(C(=O)NCc3ccc(Cl)cc3)c(O)c2c1 — higher, 227 to 229 °C
- Cc1cc(F)ccc1-c1nc(OCC(CO)CO)nc2c1ccc(=O)n2-c1c(F)cccc1F — higher, 77 to 81 °C
- COc1cc2ccc(COC(C)=O)cc2cc1OC — higher, 71 to 75 °C
- C=CCOc1cccc(C[C@H](NC(=O)OC(C)(C)C)C(=O)OC)c1 — lower, 50 to 51 °C
- CC(C)(C)OC(=O)NCCc1ccc(OCCC2Oc3ccccc3N(Cc3ccccc3Cl)C2=O)cc1 (centres undefined) — higher, 108 to 111 °C
- O=C(O)c1ncncc1Br — higher, 200 °C
- CCCCNc1ccc(-c2cc3ccccc3o2)cc1 — higher, 113 to 115 °C
- OC(CNCCNc1ncnc2[nH]ncc12)COc1ccccc1 (centres undefined) — higher, 142 to 144 °C
- COc1cccc(N2CCN(c3c(C)c(C)c4c(c3C)C(N3CCCC3)C(C)(C)O4)CC2)c1 (centres undefined) — higher, 106 to 107 °C
- CCOC(=O)CC(=O)c1c(C(=O)OC)n(C)c2cc(Cl)ccc12 — higher, 250 to 252 °C
- COc1cc2c(cc1Nc1ncc(Cl)c(Nc3ccccc3S(=O)(=O)N(C)C)n1)CCN(C(=O)C(C)(C)N)CC2 — higher, 93 to 101 °C
- COc1cc(C(=O)C(C)C)ccc1O — higher, 86 to 87 °C
- CC(C)(C)OC(=O)C[C@H](NC(=O)CNC(=O)CC1(c2ccc(C(N)=S)cc2)OCCO1)C(=O)N[C@@H](Cc1ccccc1)C(=O)OC(C)(C)C — higher, 96 to 98 °C
- O=C(O)c1ccccc1N1C(=O)C=CC1=O — higher, 165 to 168 °C
- COC(=O)c1cnn(C)c1C(=O)Nc1ccn2nc(-c3ccccc3)nc2c1 — higher, 243 to 247 °C
- O=C1CCN(C(=O)OCc2ccc([N+](=O)[O-])cc2)CC1 — higher, 123 to 124 °C
- OCCC(=C(c1ccccc1)c1ccc(OCCBr)cc1)c1ccccc1 — higher, 133 to 137 °C
- N#Cc1ccc(NC2CCN(Cc3cc(F)cc(F)c3)CC2)nn1 — higher, 188 °C
- CCc1ccc(CC(C)(C)NCC(O)c2cc(OCc3ccccc3)cc3c2OCC(=O)N3)cc1 (centres undefined) — higher, 210 to 214 °C
- CCCCn1nc(C(OC)OC)nc1Cc1ccc(-c2ccccc2-c2nnn[nH]2)nc1 — higher, 113 to 115 °C
- CCOc1ccc(N2CCN(c3c(C)c4c(c(OCC)c3C)OC(C)C4)CC2)cc1 (centres undefined) — higher, 121 to 122 °C
- C=CCCN1C(C)=C(C(=O)OC)C(c2ccccc2)C(C(=O)OC)=C1C — higher, 108 to 110 °C
- O=C1C(=O)N2c3ccccc3Sc3cccc1c32 — higher, 203 to 206 °C
- O=C1NCC(C(F)(F)F)C(=O)N1Cc1ccccc1 (centres undefined) — higher, 129 to 130 °C
- COCc1cn(Cc2ccccc2)c(=O)[nH]c1=O — higher, 134 to 136 °C
- O=C(COc1cc(F)ccc1C(=O)NCc1cccc([N+](=O)[O-])c1)OC1CCCCC1 — higher, 87 to 90 °C
- C#CCN(CC#C)c1cc(OC)c(OC)c(OC)c1 — lower, 62 to 63 °C
- COc1cccc(CCN2C(=O)c3c(F)c(F)c(F)c(F)c3C2(O)c2ccc(F)cc2)c1 (centres undefined) — higher, 161 °C
- COc1ccc(OC)c(C=O)c1C — lower, 61 to 61.5 °C
- O=c1ccc2ccc(CNCCNc3ccccc3)cc2o1 — higher, 81 to 83 °C
- Cc1nc2sc(C)c(C)n2c(=O)c1CCN1CCC(C(=O)c2ccc(F)cc2)CC1 — higher, 159 °C
- CCn1c(=O)n(C2CCN(CCCCN3C(=O)c4ccccc4S3(=O)=O)CC2)c2ccccc21 — higher, 124 to 125 °C
- CCCCc1cc(=O)oc2cc(O)cc(O)c12 — higher, 236 to 237 °C
- Cn1ccc(=S)c2ccccc21 — higher, 208 to 210 °C
- CNc1nc(C(=O)N(C)Cc2cc(C(F)(F)F)cc(C(F)(F)F)c2)c(-c2ccccc2)c2ccccc12 — higher, 213 to 214 °C
- CC(=O)Oc1ccc2c(C)cc(=O)oc2c1CC(Br)CBr (centres undefined) — higher, 145 to 148 °C
- Cc1cccc(-c2nc(CI)c(C)o2)c1 — lower, 32 °C
- CC1(C)c2cc(C#N)ccc2OC1OC(=O)CCl (centres undefined) — higher, 138 °C
- Cl/C(=C\c1ccc(Br)cc1)c1ccc(Cl)cc1 — higher, 108 °C
- Cc1oc2c(Br)cc(C3CCN(Cc4ccccc4)CC3)cc2c1C — higher, 86 to 91 °C
- CCN(CCOc1cccc2ccccc12)c1ccc(C(=O)O)cc1 — higher, 205 to 206 °C
- N=C(N)c1noc2cc([N+](=O)[O-])ccc12 — higher, 182 to 185 °C
- CC1(C)CCCC(Cl)(Cl)C(=O)N1 — higher, 148 to 155 °C
- COCN1C(=O)COc2ccc([N+](=O)[O-])cc21 — higher, 120 to 122 °C
- O=C(O)c1ccc2c(c1)S(=O)c1ccc([N+](=O)[O-])cc1C=C2 (centres undefined) — higher, 278 to 281 °C
- CSc1nc(-c2ccc(C(F)(F)F)cc2)c2cc(C)sc2n1 — higher, 113 °C
- CCn1cc(C(=O)O)c(=O)c2cc(F)c(N3C[C@@H](N)[C@@H](C)C3)c(Cl)c21 (relative stereo) — higher, 222 to 224 °C
- CCON=C(C)c1cccnc1 — higher, 160 to 162 °C
- CC1(C)CCC(C(=O)COS(=O)(=O)c2ccccc2)CC1 — lower, 34.5 to 35 °C
- OC(c1ccccc1)c1ccc2[nH]nnc2c1 (centres undefined) — higher, 143 °C
- CC(C)C(c1ccc(N)c([N+](=O)[O-])c1)n1cncn1 (centres undefined) — higher, 206 °C
- COC(=O)c1cc(OC)c(OCCCN)cc1[N+](=O)[O-] — higher, 101 to 103 °C
- Cn1c(-c2ccccc2Sc2nc3ccccc3[nH]2)nc2ccccc21 — higher, 246 to 247 °C
- Cc1cc(-n2cnnn2)cc2c1NC(=O)CC2 — higher, 271 to 272 °C
- CCOC(=O)C(C)(C)CCCCCOc1ccc(NC(=O)CCCCCn2ccnc2)cc1 — lower, 59 °C
- CC(=O)c1c(O)cccc1OCC(O)COc1c(C)cccc1C (centres undefined) — higher, 88 to 90 °C
- CC(C)(Cn1c(CO)nc2c(N)nc3ccccc3c21)C(N)=O — higher, 201 to 203 °C
- N#Cc1c(-c2ccccc2)nn2ccccc12 — higher, 138 to 139 °C
- CCOC(=O)Cn1c(=O)c(=O)[nH]c2cc(C(F)(F)F)c(-n3ccc(C=NOCc4ccccc4)c3)cc21 — higher, 142 to 147 °C
- CCOC(=O)CC(CC(=O)OCC)N1CCC(Nc2ncc3ncnc(Nc4cccc(Br)c4)c3n2)CC1 — higher, 132 °C
- CC(=O)NCCNC(=O)Nc1ccc(-c2c[nH]c(=O)cn2)cc1 — higher, 238 to 244 °C
- CCC(=O)N=C(NC(=O)OC)Nc1cc(Oc2ccccc2)ccc1NC(C)=O — higher, 161 to 163 °C
- O=Cc1ccc(C=Cc2ccccc2)cc1 — higher, 112 to 113 °C
- Cc1oc2cc(NC(=O)C(=O)O)ccc2c(=O)c1C — higher, 234 to 240 °C
- CN1C(=S)C(NC(=O)CCC2CCCCC2)N=C(c2ccccc2)c2ccccc21 (centres undefined) — higher, 219 to 221 °C
- CCOC(=O)c1ccccc1CS(=O)(=O)Cl — lower, 63 to 64 °C
- Cc1ccc(C)c(OCc2ccccc2C(Cl)Cl)c1 — lower, 62 to 65 °C
- CN1C2CC(OC(=O)Cc3ccccc3)CC1C(O)C2O (centres undefined) — higher, 120 to 122 °C
- CC(C)(C)OC(=O)Nc1cc(OCc2ccccc2)c2ccccc2c1I — higher, 111 to 112 °C
- CCOc1ccc([N+](=O)[O-])cc1-c1nc2cccnc2c(=O)[nH]1 — higher, 251 to 254 °C
- COc1ccc(-c2cc(C#N)c3cc(O)ccc3c2)cc1F — higher, 214 to 216 °C
- CCC1(C)OC(c2ccc(S(N)(=O)=O)cc2)=C(c2ccccc2)C1=O (centres undefined) — higher, 153 to 154 °C
- O=C(O)c1cc(Cl)ccc1S — higher, 192 to 194 °C
- C=C(C)C(=O)Nc1ccc(O)c(-n2nc3ccc(OC)cc3n2)c1 — higher, 199 to 201 °C
- Nc1c(NCCCOc2cccc(CO)c2)c(=O)c1=O — higher, 207 to 212 °C
- Cc1ccc(Cc2nc3cc(Cl)c(S(N)(=O)=O)cc3[nH]2)cc1 — higher, 214 to 217 °C
- Nc1ncc2c(n1)-c1ccc(-c3ccccc3)cc1C(c1ccc(Cl)c(Cl)c1)C2 (centres undefined) — higher, 186 to 187 °C
- CN(c1cccc2cc(C3=NCC(C)(CN4CCNCC4)S3)[nH]c12)S(=O)(=O)c1cccs1 (centres undefined) — higher, 178 to 180 °C
- CCc1cnc(-n2cc(CCCO)c(C(C)C)n2)nc1 — not separable, 70 to 71 °C
- Fc1cccc(F)c1-c1ccncc1 — higher, 113 to 114 °C
- COc1ccc(C(=O)c2cccc(OCc3nc(-c4ccccc4)oc3C)c2)c(OCCOC(C)=O)c1 — higher, 90 to 91 °C
- COc1nc(C)nc(NC(=O)NS(=O)(=O)c2ccccc2CCC(F)(F)F)n1 — higher, 157 to 158 °C
- COc1c(C)c(C)c(OC)c(C(CCCC(=O)O)c2ccccc2)c1C (centres undefined) — higher, 142 to 143 °C
- COc1ccc(N2C(=O)CC(Cl)C2=O)cc1 (centres undefined) — higher, 142 to 143 °C
- OC1CSC(Oc2cccc3conc23)C(O)C1O (centres undefined) — higher, 115 °C
- O=C(O)c1cc([N+](=O)[O-])cc2ccccc12 — higher, 255 to 257 °C
- CCOC(=O)C(=O)c1c(C(=O)OCC)n(C)c2cc(Cl)ccc12 — higher, 94 to 95 °C
- CN1CCC2(CC1)c1ccccc1Sc1c(O)cccc12 — higher, 180 to 182 °C
- CCN1CCN2C(=O)c3ccccc3C12c1ccccc1 (centres undefined) — higher, 122 to 124 °C
- N#Cc1ncc(NCCO)nc1Br — higher, 158 to 160 °C
- O=C1CCC(N2Cc3c(CNC(=O)c4ccc(Cl)c(Cl)c4)cccc3C2=O)C(=O)N1 (centres undefined) — higher, > 260 °C
- CCCN(CCC)Sc1nc2ccccc2s1 — lower, 57 to 59 °C
- O=C(c1ccc(-c2cccc(C(F)(F)F)c2)o1)N1Cc2c([nH]c3ccccc3c2=O)C1c1ccc2c(c1)OCO2 (centres undefined) — higher, 219 to 221 °C
- Cc1ccc(S(=O)(=O)OCC2Cc3cccc(-c4cccc(Cl)c4)c3O2)cc1 (centres undefined) — higher, 101 to 103 °C
- CC(C)(C)OC(=O)NC1C(=O)N(OCc2ccccc2)C12CCC2 (centres undefined) — higher, 156 to 157 °C
- O=C1CCC(c2ccccc2)(c2ccccc2)[C@@H]2CN(C(=O)Cc3ccsc3)C[C@H]12 (racemic) — higher, 224 °C
- O=C(O)CNC1CCc2ccc(O)cc21 (centres undefined) — higher, 260 °C
- NC(=O)COC(=O)c1c(Cl)ccc(Cl)c1Cl — higher, 158 to 160 °C
- CC(C)Cn1c(CN)c(-c2ccccc2)c2cc(/C=C/C(N)=O)ccc2c1=O — higher, 228 to 230 °C
- Nc1ccc(C(=O)OCCCN2CCOCC2)c(N)c1 — higher, 96 °C
- COC(=O)c1ccccc1S(=O)(=O)NC(=O)Nc1nc(C)cc(CO)n1 — higher, 140 to 141 °C
